Numbers after ± are expanded uncertainties.
Details: Liquid; for viscosity: Capillary tube (Ostwald / Ubbelohde) method; for mass density: Vibrating tube method

CCCCCCCC [octane]
viscosity (293.21 K, 1996 kPa): 0.5512 ± 0.0062 mPa·s
mass density (293.21 K, 1996 kPa): 703.76 ± 0.93 kg/m3
viscosity (293.21 K, 8004 kPa): 0.5874 ± 0.0066 mPa·s
mass density (293.21 K, 8004 kPa): 709.25 ± 0.95 kg/m3
viscosity (293.21 K, 13010 kPa): 0.6183 ± 0.0069 mPa·s
mass density (293.21 K, 13010 kPa): 713.21 ± 0.97 kg/m3
viscosity (293.21 K, 30002 kPa): 0.7285 ± 0.008 mPa·s
mass density (293.21 K, 30002 kPa): 725.54 ± 1 kg/m3
viscosity (293.22 K, 3994 kPa): 0.5631 ± 0.0063 mPa·s
mass density (293.22 K, 3994 kPa): 705.71 ± 0.94 kg/m3
viscosity (293.22 K, 6001 kPa): 0.5752 ± 0.0064 mPa·s
mass density (293.22 K, 6001 kPa): 707.57 ± 0.94 kg/m3
viscosity (293.22 K, 10009 kPa): 0.5997 ± 0.0067 mPa·s
mass density (293.22 K, 10009 kPa): 710.88 ± 0.96 kg/m3
viscosity (293.22 K, 16009 kPa): 0.6371 ± 0.0071 mPa·s
mass density (293.22 K, 16009 kPa): 715.43 ± 0.98 kg/m3
viscosity (293.22 K, 19011 kPa): 0.6566 ± 0.0073 mPa·s
mass density (293.22 K, 19011 kPa): 717.57 ± 0.99 kg/m3
viscosity (293.22 K, 22012 kPa): 0.6759 ± 0.0075 mPa·s
mass density (293.22 K, 22012 kPa): 719.76 ± 1 kg/m3
viscosity (293.22 K, 25004 kPa): 0.6954 ± 0.0077 mPa·s
mass density (293.22 K, 25004 kPa): 721.88 ± 1 kg/m3
viscosity (293.22 K, 28004 kPa): 0.7152 ± 0.0079 mPa·s
mass density (293.22 K, 28004 kPa): 724.19 ± 1 kg/m3
viscosity (313.1 K, 5999 kPa): 0.4593 ± 0.0052 mPa·s
mass density (313.1 K, 5999 kPa): 692.07 ± 0.93 kg/m3
viscosity (313.1 K, 19006 kPa): 0.5234 ± 0.0059 mPa·s
mass density (313.1 K, 19006 kPa): 703.5 ± 0.98 kg/m3
viscosity (313.1 K, 21998 kPa): 0.5385 ± 0.0061 mPa·s
mass density (313.1 K, 21998 kPa): 706.05 ± 0.99 kg/m3
viscosity (313.1 K, 25000 kPa): 0.5539 ± 0.0062 mPa·s
mass density (313.1 K, 25000 kPa): 708.39 ± 1 kg/m3
viscosity (313.1 K, 27998 kPa): 0.5694 ± 0.0064 mPa·s
mass density (313.1 K, 27998 kPa): 710.67 ± 1 kg/m3
viscosity (313.1 K, 30001 kPa): 0.5798 ± 0.0065 mPa·s
mass density (313.1 K, 30001 kPa): 712.15 ± 1 kg/m3
viscosity (313.11 K, 2007 kPa): 0.4402 ± 0.005 mPa·s
mass density (313.11 K, 2007 kPa): 688.27 ± 0.91 kg/m3
viscosity (313.11 K, 4000 kPa): 0.4497 ± 0.0051 mPa·s
mass density (313.11 K, 4000 kPa): 690.26 ± 0.92 kg/m3
viscosity (313.11 K, 7997 kPa): 0.469 ± 0.0053 mPa·s
mass density (313.11 K, 7997 kPa): 693.85 ± 0.93 kg/m3
viscosity (313.11 K, 10009 kPa): 0.4788 ± 0.0054 mPa·s
mass density (313.11 K, 10009 kPa): 695.59 ± 0.94 kg/m3
viscosity (313.11 K, 13005 kPa): 0.4935 ± 0.0056 mPa·s
mass density (313.11 K, 13005 kPa): 698.26 ± 0.95 kg/m3
viscosity (313.11 K, 16009 kPa): 0.5083 ± 0.0057 mPa·s
mass density (313.11 K, 16009 kPa): 700.84 ± 0.97 kg/m3
viscosity (333 K, 22003 kPa): 0.4414 ± 0.005 mPa·s
mass density (333 K, 22003 kPa): 691.91 ± 0.98 kg/m3
viscosity (333.01 K, 2005 kPa): 0.3601 ± 0.0042 mPa·s
mass density (333.01 K, 2005 kPa): 672.19 ± 0.89 kg/m3
viscosity (333.01 K, 3993 kPa): 0.3681 ± 0.0043 mPa·s
mass density (333.01 K, 3993 kPa): 674.49 ± 0.9 kg/m3
viscosity (333.01 K, 5998 kPa): 0.3761 ± 0.0044 mPa·s
mass density (333.01 K, 5998 kPa): 676.69 ± 0.91 kg/m3
viscosity (333.01 K, 8014 kPa): 0.3841 ± 0.0044 mPa·s
mass density (333.01 K, 8014 kPa): 678.82 ± 0.92 kg/m3
viscosity (333.01 K, 10007 kPa): 0.3921 ± 0.0045 mPa·s
mass density (333.01 K, 10007 kPa): 680.8 ± 0.93 kg/m3
viscosity (333.01 K, 13004 kPa): 0.4043 ± 0.0046 mPa·s
mass density (333.01 K, 13004 kPa): 683.6 ± 0.94 kg/m3
viscosity (333.01 K, 16002 kPa): 0.4166 ± 0.0048 mPa·s
mass density (333.01 K, 16002 kPa): 686.47 ± 0.95 kg/m3
viscosity (333.01 K, 19006 kPa): 0.4289 ± 0.0049 mPa·s
mass density (333.01 K, 19006 kPa): 689.24 ± 0.97 kg/m3
viscosity (333.01 K, 25006 kPa): 0.4539 ± 0.0052 mPa·s
mass density (333.01 K, 25006 kPa): 694.49 ± 1 kg/m3
viscosity (333.01 K, 28003 kPa): 0.4666 ± 0.0053 mPa·s
mass density (333.01 K, 28003 kPa): 696.99 ± 1 kg/m3
viscosity (333.01 K, 30012 kPa): 0.4751 ± 0.0054 mPa·s
mass density (333.01 K, 30012 kPa): 698.61 ± 1 kg/m3
viscosity (353.12 K, 2008 kPa): 0.2974 ± 0.0035 mPa·s
mass density (353.12 K, 2008 kPa): 655.38 ± 0.87 kg/m3
viscosity (353.12 K, 3999 kPa): 0.3043 ± 0.0036 mPa·s
mass density (353.12 K, 3999 kPa): 657.99 ± 0.88 kg/m3
viscosity (353.12 K, 6000 kPa): 0.3112 ± 0.0037 mPa·s
mass density (353.12 K, 6000 kPa): 660.5 ± 0.89 kg/m3
viscosity (353.12 K, 8001 kPa): 0.3181 ± 0.0037 mPa·s
mass density (353.12 K, 8001 kPa): 663.11 ± 0.9 kg/m3
viscosity (353.12 K, 10006 kPa): 0.325 ± 0.0038 mPa·s
mass density (353.12 K, 10006 kPa): 665.45 ± 0.91 kg/m3
viscosity (353.12 K, 19000 kPa): 0.3563 ± 0.0041 mPa·s
mass density (353.12 K, 19000 kPa): 674.99 ± 0.96 kg/m3
viscosity (353.12 K, 22003 kPa): 0.3669 ± 0.0043 mPa·s
mass density (353.12 K, 22003 kPa): 677.96 ± 0.97 kg/m3
viscosity (353.12 K, 25005 kPa): 0.3775 ± 0.0044 mPa·s
mass density (353.12 K, 25005 kPa): 680.81 ± 0.99 kg/m3
viscosity (353.12 K, 28008 kPa): 0.3882 ± 0.0045 mPa·s
mass density (353.12 K, 28008 kPa): 683.56 ± 1 kg/m3
viscosity (353.12 K, 30004 kPa): 0.3954 ± 0.0046 mPa·s
mass density (353.12 K, 30004 kPa): 685.34 ± 1 kg/m3
viscosity (353.13 K, 13003 kPa): 0.3354 ± 0.0039 mPa·s
mass density (353.13 K, 13003 kPa): 668.83 ± 0.93 kg/m3
viscosity (353.13 K, 16004 kPa): 0.3458 ± 0.004 mPa·s
mass density (353.13 K, 16004 kPa): 672.05 ± 0.94 kg/m3

From the NIST ThermoML archive (doi:10.1021/acs.jced.7b00650)
